In data set [1] the target is T1, Peroxisome proliferator-activated receptor gamma (Homo sapiens) (UniProt P37231).
T1 sequence (whole entry): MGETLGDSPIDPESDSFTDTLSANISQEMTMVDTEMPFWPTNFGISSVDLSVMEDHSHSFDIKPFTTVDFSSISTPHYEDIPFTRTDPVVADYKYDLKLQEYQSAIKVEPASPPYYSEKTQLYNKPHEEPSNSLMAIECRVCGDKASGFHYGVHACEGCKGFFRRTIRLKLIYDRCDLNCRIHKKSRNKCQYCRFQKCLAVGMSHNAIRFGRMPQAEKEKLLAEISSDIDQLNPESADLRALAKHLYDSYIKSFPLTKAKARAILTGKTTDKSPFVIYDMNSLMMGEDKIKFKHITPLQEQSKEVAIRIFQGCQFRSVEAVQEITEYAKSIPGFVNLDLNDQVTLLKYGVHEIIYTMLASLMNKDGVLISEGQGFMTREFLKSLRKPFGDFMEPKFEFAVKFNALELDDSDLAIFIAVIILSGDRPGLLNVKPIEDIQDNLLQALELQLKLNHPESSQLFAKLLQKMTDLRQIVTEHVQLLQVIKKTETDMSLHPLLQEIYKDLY
Kind of data set: Agonist activity at PPAR-gamma (unknown origin) expressed in CV-1 cells co-transfected with tk-PPRE-luciferase vector at 10 uM after 24 hrs by transactivation assay relative to rosiglitazone. The data set is classed as cell-based.

Data set [2] is described as follows: Retention time of the compound by HPLC analysis. The data set is classed as physicochemical.
Data set [3] concerns the target T2, Peroxisome proliferator-activated receptor delta (Homo sapiens) (UniProt Q03181).
T2 sequence (whole entry): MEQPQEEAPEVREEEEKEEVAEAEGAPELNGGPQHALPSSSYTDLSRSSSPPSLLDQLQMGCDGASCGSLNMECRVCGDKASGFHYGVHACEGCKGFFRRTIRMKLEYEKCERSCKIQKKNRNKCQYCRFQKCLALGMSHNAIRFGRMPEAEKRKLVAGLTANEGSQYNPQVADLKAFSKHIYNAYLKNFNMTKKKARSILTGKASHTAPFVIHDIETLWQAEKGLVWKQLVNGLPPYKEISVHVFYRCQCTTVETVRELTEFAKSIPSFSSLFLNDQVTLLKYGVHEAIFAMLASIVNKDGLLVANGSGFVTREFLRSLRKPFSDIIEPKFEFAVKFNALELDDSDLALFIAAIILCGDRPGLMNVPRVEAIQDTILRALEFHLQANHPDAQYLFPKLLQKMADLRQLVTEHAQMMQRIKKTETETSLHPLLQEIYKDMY
Kind of data set: Agonist activity at PPAR-delta (unknown origin) expressed in HEK293t cells co-transfected with tk-PPRE-luciferase vector at 10 uM after 24 hrs by transactivation assay relative to GW0742. It is filed as cell-based. The note with it: HEK-293T.

Data set [4] addresses T3, Peroxisome proliferator-activated receptor alpha (Homo sapiens) (UniProt Q07869).
T3 sequence (whole entry): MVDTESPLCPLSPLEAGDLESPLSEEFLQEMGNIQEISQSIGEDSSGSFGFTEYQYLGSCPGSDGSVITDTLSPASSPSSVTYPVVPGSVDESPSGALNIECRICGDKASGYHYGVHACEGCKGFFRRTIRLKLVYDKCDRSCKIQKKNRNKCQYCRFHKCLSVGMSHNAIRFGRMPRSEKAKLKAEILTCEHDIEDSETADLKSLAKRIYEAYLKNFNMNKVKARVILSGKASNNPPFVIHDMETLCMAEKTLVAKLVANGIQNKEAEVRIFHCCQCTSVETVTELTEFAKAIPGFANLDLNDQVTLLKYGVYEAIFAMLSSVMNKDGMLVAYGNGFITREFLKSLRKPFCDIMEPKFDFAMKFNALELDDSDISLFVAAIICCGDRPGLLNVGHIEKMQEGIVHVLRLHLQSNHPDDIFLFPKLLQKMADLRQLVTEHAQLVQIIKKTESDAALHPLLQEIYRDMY
Kind of data set: Agonist activity at PPAR-alpha (unknown origin) expressed in CV-1 cells co-transfected with tk-PPRE-luciferase vector at 10 uM after 24 hrs by transactivation assay relative to GW7647. The data set is classed as cell-based.

For `Cc1ccc(COc2ccccc2OCCCOc2ccc3c(CC(=O)O)c[nH]c3c2)cc1`, the figures for the Emax in data set [1], in data set [3] and in data set [4] were 19.2%, 64.6% and 10.9%, respectively. In data set [2], this compound gave a Retention_time of 7.422 min.

With `O=C(O)Cc1cn(Cc2ccccc2)c2ccc(OCCCOc3cccc(OCc4ccc(Cl)cc4Cl)c3)cc12`, the Emax is 102% in data set [1], 44.2% in data set [3] and 18.7% in data set [4].

Turning to `O=C(O)Cc1cn(Cc2ccccc2)c2ccc(OCCCOc3cccc(OCc4ccc(F)cc4)c3)cc12`, the results for the Emax in data set [1], in data set [3] and in data set [4] were 77.7%, 59.5% and 16.5%, respectively. This compound yielded a Retention_time in data set [2] of 16.467 min.

Regarding `O=C(O)Cc1cn(Cc2ccccc2)c2ccc(OCCCOc3ccc(OCc4ccc(Cl)cc4)cc3)cc12`, the Emax in data set [1] was determined as 83.7%; in data set [3], 94.7%; in data set [4], 19%. Also, in data set [2], the Retention_time came out at 22.989 min.

With `O=C(O)Cc1cn(Cc2ccccc2)c2ccc(OCCCOc3cccc(Oc4ccc(C(F)(F)F)cc4)c3)cc12`, the values for the Emax in data set [1], in data set [3] and in data set [4] were 85.2%, 53.2% and 25.9%, respectively. The compound further yielded a Retention_time in data set [2] of 25.922 min.

Turning to `Cc1ccc(COc2ccccc2OCCCOc2ccc3[nH]cc(CC(=O)O)c3c2)cc1`, the results for the Emax in data set [1], in data set [3] and in data set [4] were 73.4%, 35.2% and 41.2%, respectively. Moreover, the Retention_time in data set [2] is 7.257 min.

Consider `O=C(O)Cc1c[nH]c2ccc(OCCOc3cccc(OCc4ccc(C(F)(F)F)cc4)c3)cc12`, for which the Emax turned out to be 103% in data set [1], 83% in data set [3] and 43% in data set [4]. Also, in data set [2], the Retention_time was found to be 7.193 min.

On to `O=C(O)Cc1c[nH]c2ccc(OCCCOc3cccc(OCc4ccc(Cl)cc4Cl)c3)cc12`, for which the Emax is 102% in data set [1], 85.3% in data set [3] and 59.5% in data set [4].

`Cc1cccc(OCCOc2ccc3c(c2)c(CC(=O)O)cn3Cc2ccccc2)c1`: the Emax was 36.5% in data set [1], 13.2% in data set [3] and 10.9% in data set [4]. The Retention_time in data set [2] is 8.19 min.

With `O=C(O)Cc1cn(Cc2ccccc2)c2ccc(OCCOc3cccc(Cl)c3)cc12`, the Emax amounted to 23.6% in data set [1], 13.7% in data set [3] and 15.3% in data set [4]. The Retention_time in data set [2] is given as 8.911 min.

As to `COc1ccc(COc2cccc(OCCOc3ccc4[nH]cc(CC(=O)O)c4c3)c2)cc1`, the Emax in data set [1] came to 93.4%; in data set [3] it was 70%; in data set [4] it was 87.5%. This compound also registered a Retention_time in data set [2] of 5.651 min.

In the case of `Cc1ccc(COc2cccc(OCCOc3ccc4[nH]cc(CC(=O)O)c4c3)c2)cc1`, the Emax in data set [1] worked out at 114%; in data set [3], 76.6%; in data set [4], 66.7%. The Retention_time in data set [2] is 7.375 min.

Regarding `O=C(O)Cc1cn(Cc2ccccc2)c2ccc(OCCCOc3cccc(Oc4ccc(Cl)cc4)c3)cc12`, the values for the Emax in data set [1], in data set [3] and in data set [4] were 99.8%, 88.8% and 34%, respectively. This compound registered a Retention_time in data set [2] of 25.456 min.

`O=C(O)Cc1c[nH]c2ccc(OCCCOc3ccc(OCc4ccc(Cl)cc4)cc3)cc12`: the Emax was determined as 99.4% in data set [1], 89.5% in data set [3] and 18.9% in data set [4]. For the same compound, in data set [2], the Retention_time came to 9.166 min.

For `Cc1ccc(COc2cccc(OCCOc3ccc4c(c3)c(CC(=O)O)cn4Cc3ccccc3)c2)cc1`, the Emax in data set [1] stood at 101%; in data set [3], 87.2%; in data set [4], 38.5%. The same compound returned a Retention_time in data set [2] of 16.602 min.

With `Cc1ccc(COc2cccc(OCCCOc3ccc4c(c3)c(CC(=O)O)cn4Cc3ccccc3)c2)cc1`, the Emax turned out to be 109% in data set [1], 83% in data set [3] and 31.4% in data set [4]. The compound further came in with a Retention_time in data set [2] of 21.719 min.

For the compound `O=C(O)Cc1cn(Cc2ccccc2)c2ccc(OCCCOc3cccc(Oc4ccccc4)c3)cc12`, the Emax amounted to 71.2% in data set [1], 46.3% in data set [3] and 13.9% in data set [4]. The compound further registered a Retention_time in data set [2] of 18.216 min.

On to `CCCn1cc(CC(=O)O)c2cc(OCCCOc3cccc(OCc4ccc(Cl)cc4)c3)ccc21`, for which the figures for the Emax in data set [1], in data set [3] and in data set [4] were 110%, 77.1% and 66.8%, respectively. Further, the Retention_time in data set [2] was determined as 21.212 min.

In the case of `CC(C)=CCn1cc(CC(=O)O)c2cc(OCCCOc3cccc(OCc4ccc(Cl)cc4)c3)ccc21`, the Emax in data set [1] stood at 120%; in data set [3], 65.2%; in data set [4], 37.9%. In data set [2], this compound registered a Retention_time of 30.169 min.

With `O=C(O)Cc1c[nH]c2ccc(OCCOc3cccc(OCc4ccc(Cl)cc4)c3)cc12`, the Emax worked out at 79.6% in data set [1], 79% in data set [3] and 42.8% in data set [4]. The compound also returned a Retention_time in data set [2] of 7.623 min.

`Cc1cccc(OCCOc2ccc3[nH]cc(CC(=O)O)c3c2)c1`: the Emax in data set [1] came out at 31.3%; in data set [3], 27.9%; in data set [4], 21.8%. The Retention_time in data set [2] came out at 4.444 min.

As for `O=C(O)Cc1c[nH]c2ccc(OCCCOc3cccc(OCc4ccc(Cl)cc4)c3)cc12`, the Emax in data set [1] worked out at 104%; in data set [3], 63.7%; in data set [4] it was 56.7%. The same compound showed a Retention_time in data set [2] of 9.64 min.

As to `O=C(O)Cc1c[nH]c2ccc(OCCCOc3cccc(OCc4ccc(C(F)(F)F)cc4)c3)cc12`, the Emax in data set [1] was determined as 100%; in data set [3], 71.9%; in data set [4] it was 28.2%. The compound further gave a Retention_time in data set [2] of 9.707 min.

Take `O=C(O)Cc1cn(Cc2ccccc2)c2ccc(OCCCOc3cccc(OCc4ccccc4)c3)cc12`: the results for the Emax in data set [1], in data set [3] and in data set [4] were 94.6%, 95.5% and 30.4%, respectively. For the same compound, in data set [2], the Retention_time is on record as 14.199 min.

As for `C=CCn1cc(CC(=O)O)c2cc(OCCCOc3cccc(OCc4ccc(Cl)cc4)c3)ccc21`, the Emax was 104% in data set [1], 71.1% in data set [3] and 35.8% in data set [4]. This compound also had a Retention_time in data set [2] of 15.057 min.

In the case of `Cc1ccc(COc2ccc(OCCCOc3ccc4[nH]cc(CC(=O)O)c4c3)cc2)cc1`, the Emax in data set [1] was 91.7%; in data set [3], 53.3%; in data set [4] it was 41.2%. This compound registered a Retention_time in data set [2] of 7.89 min.

Take `O=C(O)Cc1cn(Cc2ccccc2)c2ccc(OCCOc3cccc(OCc4ccc(C(F)(F)F)cc4)c3)cc12`: the Emax is 85.7% in data set [1], 73.9% in data set [3] and 23.4% in data set [4]. Besides, the Retention_time in data set [2] was 18.375 min.

In the case of `Cc1ccc(Oc2cccc(OCCCOc3ccc4c(c3)c(CC(=O)O)cn4Cc3ccccc3)c2)cc1`, the Emax in data set [1] came to 119%; in data set [3] it was 69.1%; in data set [4] it was 33.3%. This compound displayed a Retention_time in data set [2] of 23.472 min.

Consider `O=C(O)Cc1cn(Cc2ccccc2)c2cc(OCCCOc3cccc(OCc4ccc(Cl)cc4)c3)ccc12`, for which the Emax stood at 122% in data set [1], 84.8% in data set [3] and 34.8% in data set [4]. This compound showed a Retention_time in data set [2] of 18.802 min.

With `O=C(O)Cc1cn(Cc2ccccc2)c2ccc(OCCCOc3cccc(OCc4ccc(C(F)(F)F)cc4)c3)cc12`, the Emax amounted to 77.9% in data set [1], 87.4% in data set [3] and 12.2% in data set [4]. In addition, the Retention_time in data set [2] is reported as 24.08 min.

Consider `O=C(O)Cc1c[nH]c2ccc(OCCCOc3cccc(OCc4ccccc4)c3)cc12`, for which the Emax in data set [1] is 73.1%; in data set [3], 21.7%; in data set [4], 22.6%. Also, the Retention_time in data set [2] was 6.379 min.
